Test results: patent US8288371B2, “Ortho pyrrolidine, benzyl-substituted heterocycle CCR1 antagonists for autoimmune diseases and inflammation” (Pharmacopeia, LLC, priority 2007, dated 2012)
pIC50: −log10 of the molar value.

Each compound was assayed against T1, human CCR1 (Homo sapiens, UniProt P32246) (assay: CCR1 binding protocol (SPA, [125I]-MIP-1α displacement)). Settings: cell membrane expressing human CCR1, 0.1 nM [125I]-MIP-1α, 4 hours at ambient temperature; read-out: Relative potency (IC50).
T1 sequence (P32246 1-355): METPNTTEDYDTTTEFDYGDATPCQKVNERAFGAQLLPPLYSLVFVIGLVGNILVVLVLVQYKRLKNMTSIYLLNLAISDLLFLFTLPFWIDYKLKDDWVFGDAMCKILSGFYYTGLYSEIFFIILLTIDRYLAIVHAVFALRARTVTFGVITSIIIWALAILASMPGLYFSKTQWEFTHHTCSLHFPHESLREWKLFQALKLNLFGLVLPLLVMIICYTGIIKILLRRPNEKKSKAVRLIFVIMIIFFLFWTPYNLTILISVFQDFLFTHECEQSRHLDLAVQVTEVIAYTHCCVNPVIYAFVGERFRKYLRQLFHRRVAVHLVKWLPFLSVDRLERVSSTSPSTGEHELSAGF
Method: The following protocol was used to test compounds for CCR1 binding. A mixture, including scintillation proximity assay (SPA) beads and cell membrane expressing human CCR1, was prepared in assay buffer (130 mM NaCl+5 mM KCl+1 mM MnCl+50 mM Tris HCl at pH 7.4+0.1% bovine serum albumin (BSA)) at the ratio of 50 μg/ml membrane to 10 mg/ml SPA beads. 10 μl of the mixture was transferred to each well of a 384-well assay plate yielding a final concentration for the membrane and SPA beads of 0.5 μg/well and 100 μg/well, respectively
To generate different concentrations of the test compound, compound stocks were prepared using 10 step ½ log dilutions with a high concentration of 10 mM in DMSO and the lowest concentration being DMSO only without compound. An intermediate 40× dilution was then prepared in the assay buffer. The compound was then transferred at 10 μl/well to the assay plate. 0.5 nM [^125 I]-labeled macrophage inflammatory protein-1α (MIP-1α, an endogenous CCR1 ligand) in the assay buffer was transferred to the assay plate at 5 μl/well, for a final ligand concentration of 0.1 nM. The assay plate was then centrifuged at 2500 rpm for 2 minutes and incubated for 4 hours at ambient temperature, at which time the raw data was recorded using microbeta. The IC50 was then calculated using Graphpad Prism.

pIC50 | Structure (SMILES)
> 7.30 | Cc1noc([C@H]2CCCN2C(=O)Nc2c(C)noc2C)c1Cc1ccc(Cl)cc1 [Compound 1]
6.30 to 7.30 | Cc1noc(-c2ccccc2)c1NC(=O)N1CCC[C@@H]1c1oncc1Cc1ccc(Cl)cc1 [Compound 2]
6.30 to 7.30 | CN1C(=O)COc2ccc(NC(=O)N3CCC[C@@H]3c3oncc3Cc3ccc(Cl)cc3)cc21 [Compound 3]
6.30 to 7.30 | O=C(N[C@H]1CCOc2cc(C(F)(F)F)ccc21)N1CCC[C@@H]1c1oncc1Cc1ccc(Cl)cc1 [Compound 4]
6.30 to 7.30 | O=C(Nc1ccc(C(F)(F)F)cc1)N1CCC[C@@H]1c1oncc1Cc1ccc(Cl)cc1 [Compound 5]
5.30 to 6.30 | Cc1noc([C@H]2CCCN2C(=O)Nc2ccc(C(F)(F)F)cc2)c1Cc1ccc(Cl)cc1 [Compound 6]
6.30 to 7.30 | Cc1noc(C)c1NC(=O)N1CCC[C@@H]1c1noc(C)c1Cc1ccc(Cl)cc1 [Compound 7]
6.30 to 7.30 | Cn1cc(Cc2ccc(Cl)cc2)c([C@H]2CCCN2C(=O)Nc2ccc(C(F)(F)F)cc2)n1 [Compound 8]
5.30 to 6.30 | Cc1noc(-c2ccccc2)c1NC(=O)N1CCC[C@@H]1c1nn(C)c(C)c1Cc1ccc(Cl)cc1 [Compound 9]
5.30 to 6.30 | O=C(Nc1ccc(C(F)(F)F)cc1)N1CCC[C@@H]1c1[nH]ncc1Cc1ccc(Cl)cc1 [Compound 10]
5.30 to 6.30 | Cn1ncc(Cc2ccc(Cl)cc2)c1[C@H]1CCCN1C(=O)Nc1ccc(C(F)(F)F)cc1 [Compound 11]
> 7.30 | Cc1cc(C(F)(F)F)cc(C)c1NC(=O)N1CCC[C@@H]1c1ncncc1Cc1ccc(Cl)cc1 [Compound 12]
> 7.30 | Cc1cc(Cl)cc(C)c1NC(=O)N1CCC[C@@H]1c1ncncc1Cc1ccc(Cl)cc1 [Compound 13]
> 7.30 | Cc1noc(-c2ccccc2)c1NC(=O)N1CCC[C@@H]1c1ncncc1Cc1ccc(Cl)cc1 [Compound 14]
> 7.30 | Cc1onc(-c2ccccc2)c1NC(=O)N1CCC[C@@H]1c1ncncc1Cc1ccc(Cl)cc1 [Compound 15]
6.30 to 7.30 | Cc1ncc(Cc2ccc(Cl)cc2)c([C@H]2CCCN2C(=O)Nc2c(C)cc(C(F)(F)F)cc2C)n1 [Compound 16]
6.30 to 7.30 | CN1C(=O)COc2ccc(NC(=O)N3CCC[C@@H]3c3ncncc3Cc3ccc(Cl)cc3)cc21 [Compound 17]
6.30 to 7.30 | Cc1ncc(Cc2ccc(Cl)cc2)c([C@H]2CCCN2C(=O)Nc2c(C)cc(Cl)cc2C)n1 [Compound 18]
6.30 to 7.30 | Cc1ncnc([C@H]2CCCN2C(=O)Nc2c(C)noc2C)c1Cc1ccc(Cl)cc1 [Compound 19]

pIC50 | Structure (SMILES)
6.30 to 7.30 | C[C@H](NC(=O)N1CCC[C@@H]1c1ncncc1Cc1ccc(Cl)cc1)c1ccc(C(F)(F)F)cc1 [Compound 20]
6.30 to 7.30 | Cc1ncc(Cc2ccc(Cl)cc2)c([C@H]2CCCN2C(=O)Nc2c(C)noc2-c2ccccc2)n1 [Compound 21]
6.30 to 7.30 | O=C(N[C@H]1CCOc2c(F)cccc21)N1CCC[C@@H]1c1ncncc1Cc1ccc(Cl)cc1 [Compound 22]
6.30 to 7.30 | O=C(Nc1ccc(C(F)(F)F)cc1)N1CCC[C@@H]1c1ncncc1Cc1ccc(Cl)cc1 [Compound 23]
6.30 to 7.30 | O=C(N[C@H]1CCOc2cc(C(F)(F)F)ccc21)N1CCC[C@@H]1c1ncncc1Cc1ccc(Cl)cc1 [Compound 24]
6.30 to 7.30 | O=C(NCc1ccc(C(F)(F)F)cc1)N1CCC[C@@H]1c1ncncc1Cc1ccc(Cl)cc1 [Compound 25]
6.30 to 7.30 | Cc1ncnc([C@H]2CCCN2C(=O)NC2(c3ccccc3)CC2)c1Cc1ccc(Cl)cc1 [Compound 26]
5.30 to 6.30 | Cc1ncc(Cc2ccc(Cl)cc2)c([C@H]2CCCN2C(=O)Nc2ccc3c(c2)N(C)C(=O)CO3)n1 [Compound 27]
5.30 to 6.30 | CC(C)(NC(=O)N1CCC[C@@H]1c1ncncc1Cc1ccc(Cl)cc1)c1ccccc1 [Compound 28]
> 7.30 | O=C(N[C@H]1CCCc2ccccc21)N1CCC[C@@H]1c1nccn1Cc1ccc(Cl)cc1 [Compound 29]
> 7.30 | Cc1cc(C(F)(F)F)cc(C)c1NC(=O)N1CCC[C@@H]1c1nccn1Cc1ccc(Cl)cc1 [Compound 30]
> 7.30 | Cc1oc(-c2ccccc2)cc1NC(=O)N1CCC[C@@H]1c1nccn1Cc1ccc(Cl)cc1 [Compound 31]
> 7.30 | O=C(NC1CCCOc2ccccc21)N1CCC[C@@H]1c1nccn1Cc1ccc(Cl)cc1 (some centres unmarked) [Compound 32]
> 7.30 | Cc1cc(Cl)cc(C)c1NC(=O)N1CCC[C@@H]1c1nccn1Cc1ccc(Cl)cc1 [Compound 33]
> 7.30 | Cc1noc(-c2ccccc2)c1NC(=O)N1CCC[C@@H]1c1nccn1Cc1ccc(Cl)cc1 [Compound 34]
> 7.30 | Cc1onc(-c2ccccc2)c1NC(=O)N1CCC[C@@H]1c1nccn1Cc1ccc(Cl)cc1 [Compound 35]
> 7.30 | Cc1nc(-c2ccccc2)sc1NC(=O)N1CCC[C@@H]1c1nccn1Cc1ccc(Cl)cc1 [Compound 36]
> 7.30 | CSc1ccc(NC(=O)N2CCC[C@@H]2c2nccn2Cc2ccc(Cl)cc2)cc1 [Compound 37]
6.30 to 7.30 | O=C(Nc1ccc(C(F)(F)F)cc1)N1CCC[C@@H]1c1nccn1Cc1ccc(Cl)cc1 [Compound 38]

pIC50 | Structure (SMILES)
6.30 to 7.30 | O=C(Nc1ccc(OC(F)(F)F)cc1)N1CCC[C@@H]1c1nccn1Cc1ccc(Cl)cc1 [Compound 39]
6.30 to 7.30 | O=C(Nc1ccc(SC(F)(F)F)cc1)N1CCC[C@@H]1c1nccn1Cc1ccc(Cl)cc1 [Compound 40]
6.30 to 7.30 | O=C(Nc1ccc(Cl)c(C(F)(F)F)c1)N1CCC[C@@H]1c1nccn1Cc1ccc(Cl)cc1 [Compound 41]
6.30 to 7.30 | N#C/N=C(\Nc1ccc(C(F)(F)F)cc1)N1CCC[C@@H]1c1nccn1Cc1ccc(Cl)cc1 [Compound 42]
6.30 to 7.30 | O=C(NCc1ccc(Cl)cc1Cl)N1CCC[C@@H]1c1nccn1Cc1ccc(Cl)cc1 [Compound 43]
6.30 to 7.30 | CC[C@H](NC(=O)N1CCC[C@@H]1c1nccn1Cc1ccc(Cl)cc1)c1ccc(C(F)(F)F)cc1 [Compound 44]
5.30 to 6.30 | Cc1cc(NC(=O)N2CCC[C@@H]2c2nccn2Cc2ccc(Cl)cc2)c(C(F)(F)F)o1 [Compound 45]
5.30 to 6.30 | Cc1ccc(Cn2ccnc2[C@H]2CCCN2C(=O)Nc2ccc(C(F)(F)F)cc2)cc1 [Compound 46]
5.30 to 6.30 | O=C(Nc1ccc(C(F)(F)F)cc1)N1CCC[C@@H]1c1nccn1Cc1ccccc1 [Compound 47]
> 7.30 | O=C(N[C@H]1CCCc2ccccc21)N1CCC[C@@H]1c1nnnn1Cc1ccc(Cl)cc1 [Compound 48]
6.30 to 7.30 | CC1(C)CC(NC(=O)N2CCC[C@@H]2c2nnnn2Cc2ccc(Cl)cc2)c2ccccc2O1 (some centres unmarked) [Compound 49]
5.30 to 6.30 | N#C/N=C(\N[C@H]1CCCc2ccccc21)N1CCC[C@@H]1c1nnnn1Cc1ccc(Cl)cc1 [Compound 50]
> 7.30 | Cc1noc(-c2ccccc2)c1NC(=O)N1CCC[C@@H]1c1nnnn1Cc1ccc(Cl)cc1 [Compound 51]
> 7.30 | Cc1onc(-c2ccccc2)c1NC(=O)N1CCC[C@@H]1c1nnnn1Cc1ccc(Cl)cc1 [Compound 52]
> 7.30 | O=C(Nc1ccc(C(F)(F)F)cc1)N1CCC[C@@H]1c1nnnn1Cc1ccc(Cl)cc1 [Compound 53]
6.30 to 7.30 | O=C(Nc1ccc(Cl)cc1F)N1CCC[C@@H]1c1nnnn1Cc1ccc(Cl)cc1 [Compound 54]
> 7.30 | O=C(N[C@H]1CCOc2cc(C(F)(F)F)ccc21)N1CCC[C@@H]1c1nnnn1Cc1ccc(Cl)cc1 [Compound 55]
> 7.30 | O=C(N[C@H]1CCc2ccccc2C1)N1CCC[C@@H]1c1ncnn1Cc1ccc(Cl)cc1 [Compound 56]
